What was measured:
Type in all cases: functional
[1] = test system: Enterococcus faecium; assay: Antibacterial activity against Enterococcus faecium obtained from complicated skin and skin structure infections by agar dilution method
[2] = test system: Streptococcus pyogenes; assay: Antibacterial activity against Streptococcus pyogenes obtained from complicated skin and skin structure infections by agar dilution method
[3] = test system: Staphylococcus intermedius; assay: Antibacterial activity against Staphylococcus intermedius obtained from complicated skin and skin structure infections by agar dilution method
[4] = test system: Staphylococcus aureus; assay: Antibacterial activity against Staphylococcus aureus obtained from complicated skin and skin structure infections by agar dilution method
[5] = Antibacterial activity against Streptococcus sp. 'group G' obtained from complicated skin and skin structure infections by agar dilution method
[6] = test system: Aerococcus viridans; assay: Antibacterial activity against Aerococcus viridans obtained from complicated skin and skin structure infections by agar dilution method
[7] = test system: Streptococcus constellatus; assay: Antibacterial activity against Streptococcus constellatus obtained from complicated skin and skin structure infections by agar dilution method
[8] = test system: Staphylococcus haemolyticus; assay: Antibacterial activity against coagulase-negative Staphylococcus haemolyticus obtained from complicated skin and skin structure infections by agar dilution method
[9] = test system: Staphylococcus saprophyticus; assay: Antibacterial activity against coagulase-negative Staphylococcus saprophyticus obtained from complicated skin and skin structure infections by agar dilution method
[10] = test system: Enterococcus faecalis; assay: Antibacterial activity against Enterococcus faecalis obtained from complicated skin and skin structure infections by agar dilution method
[11] = test system: Staphylococcus cohnii; assay: Antibacterial activity against coagulase-negative Staphylococcus cohnii obtained from complicated skin and skin structure infections by agar dilution method
[12] = test system: Staphylococcus lugdunensis; assay: Antibacterial activity against coagulase-negative Staphylococcus lugdunensis obtained from complicated skin and skin structure infections by agar dilution method
[13] = test system: Staphylococcus lugdunensis; assay: Antibacterial activity against methicillin-resistant, oxacillin-susceptible, coagulase-negative, mecA-positive Staphylococcus lugdunensis obtained from complicated skin and skin structure infections by agar dilution method
[14] = test system: Gemella; assay: Antibacterial activity against Gemella spp. obtained from complicated skin and skin structure infections by agar dilution method
[15] = Antibacterial activity against Streptococcus sp. 'group C' obtained from complicated skin and skin structure infections by agar dilution method
[16] = test system: Streptococcus mitis; assay: Antibacterial activity against Streptococcus mitis obtained from complicated skin and skin structure infections by agar dilution method
[17] = test system: Staphylococcus hominis; assay: Antibacterial activity against coagulase-negative Staphylococcus hominis obtained from complicated skin and skin structure infections by agar dilution method
[18] = test system: Staphylococcus; assay: Antibacterial activity against methicillin-susceptible, coagulase-negative Staphylococcus obtained from complicated skin and skin structure infections by agar dilution method
[19] = test system: Staphylococcus aureus; assay: Antibacterial activity against methicillin resistant Staphylococcus aureus obtained from complicated skin and skin structure infections by agar dilution method
[20] = test system: Lactococcus lactis; assay: Antibacterial activity against Lactococcus lactis obtained from complicated skin and skin structure infections by agar dilution method
[21] = test system: Staphylococcus warneri; assay: Antibacterial activity against coagulase-negative Staphylococcus warneri obtained from complicated skin and skin structure infections by agar dilution method
[22] = test system: Mammaliicoccus sciuri; assay: Antibacterial activity against coagulase-negative Staphylococcus sciuri obtained from complicated skin and skin structure infections by agar dilution method
[23] = test system: Staphylococcus aureus; assay: Antibacterial activity against methicillin susceptible Staphylococcus aureus obtained from complicated skin and skin structure infections by agar dilution method
[24] = test system: Gemella morbillorum; assay: Antibacterial activity against Gemella morbillorum obtained from complicated skin and skin structure infections […]
[25] = test system: Staphylococcus capitis; assay: Antibacterial activity against coagulase-negative Staphylococcus capitis obtained from complicated skin and skin structure infections by agar dilution method
[26] = test system: Micrococcus; assay: Antibacterial activity against Micrococcus spp. obtained from complicated skin and skin structure infections by agar dilution method
[27] = test system: Staphylococcus epidermidis; assay: Antibacterial activity against coagulase-negative Staphylococcus epidermidis obtained from complicated skin and skin structure infections by agar dilution method
[28] = test system: Streptococcus agalactiae; assay: Antibacterial activity against Streptococcus agalactiae obtained from complicated skin and skin structure infections by agar dilution method
[29] = test system: Bacillus; assay: Antibacterial activity against Bacillus spp. obtained from complicated skin and skin structure infections by agar dilution method
[30] = test system: Prevotella; assay: Antibacterial activity against Prevotella spp. obtained from complicated skin and skin structure infections by agar dilution method
[31] = test system: Bacteroides fragilis; assay: Antibacterial activity against Bacteroides fragilis obtained from complicated skin and skin structure infections by agar dilution method
[32] = test system: Veillonella; assay: Antibacterial activity against Veillonella spp. obtained from complicated skin and skin structure infections by agar dilution method

CN[C@H](CC(C)C)C(=O)N[C@H]1C(=O)N[C@@H](CC(N)=O)C(=O)N[C@H]2C(=O)N[C@H]3C(=O)N[C@H](C(=O)N[C@H](C(=O)O)c4cc(O)cc(O)c4-c4cc3ccc4O)[C@H](O)c3ccc(c(Cl)c3)Oc3cc2cc(c3O[C@@H]2O[C@H](CO)[C@@H](O)[C@H](O)[C@H]2O[C@H]2C[C@](C)(N)[C@H](O)[C@H](C)O2)Oc2ccc(cc2Cl)[C@H]1O [VANCOMYCIN]
1 µg/mL: MIC50 [1] | MIC50 [3] | MIC90 [3] | MIC50 [4] | MIC90 [4] | MIC50 [6] | MIC90 [6] | MIC50 [8] | MIC50 [9] | MIC [10] | MIC50 [10] | MIC50 [11] | MIC50 [12] | MIC50 [13] | MIC50 [14] | MIC90 [14] | MIC90 [15] | MIC50 [16] | MIC90 [16] | MIC50 [17] | MIC50 [18] | MIC50 [19] | MIC90 [19] | MIC50 [20] | MIC90 [20] | MIC50 [21] | MIC50 [22] | MIC50 [23] | MIC90 [23] | MIC50 [24] | MIC90 [24] | MIC50 [25] | MIC50 [26] | MIC90 [26] | MIC50 [27] | MIC50 [29] | MIC90 [29]
0.25 µg/mL: MIC [5] | MIC50 [5]
0.5 µg/mL: MIC50 [2] | MIC90 [2] | MIC90 [5] | MIC50 [7] | MIC90 [7] | MIC50 [15] | MIC50 [28] | MIC90 [28]
2 µg/mL: MIC90 [8] | MIC90 [9] | MIC90 [10] | MIC90 [11] | MIC90 [12] | MIC90 [13] | MIC90 [17] | MIC90 [18] | MIC90 [21] | MIC90 [22] | MIC90 [25] | MIC90 [27]

Cc1ncc([N+](=O)[O-])n1CCO [METRONIDAZOLE]
0.5 µg/mL: MIC [30] | MIC [31] | MIC [32]

CC[C@H]1OC(=O)[C@H](C)[C@@H](O[C@H]2C[C@@](C)(OC)[C@@H](O)[C@H](C)O2)[C@H](C)[C@@H](O[C@@H]2O[C@H](C)C[C@H](N(C)C)[C@H]2O)[C@](C)(O)C[C@@H](C)C(=O)[C@H](C)[C@@H](O)[C@]1(C)O [ERYTHROMYCIN]
0.03 µg/mL: MIC50 [6] | MIC50 [14] | MIC50 [15] | MIC50 [20] | MIC50 [24] | MIC50 [26] | MIC50 [29]
0.25 µg/mL: MIC50 [4] | MIC50 [8] | MIC50 [9] | MIC50 [11] | MIC50 [12] | MIC50 [17] | MIC50 [18] | MIC50 [21] | MIC50 [22] | MIC50 [23] | MIC50 [25] | MIC50 [27]
8 µg/mL: MIC90 [6] | MIC90 [14] | MIC90 [20] | MIC90 [24] | MIC90 [26] | MIC90 [29]
> 8 µg/mL: MIC50 [10] | MIC50 [13] | MIC90 [18] | MIC50 [19] | MIC90 [23]
> 16 µg/mL: MIC90 [4] | MIC90 [8] | MIC90 [9] | MIC90 [10] | MIC90 [11] | MIC90 [12] | MIC90 [17] | MIC90 [21] | MIC90 [22] | MIC90 [25] | MIC90 [27] | MIC90 [28]
≤ 0.06 µg/mL: MIC [3] | MIC50 [3] | MIC50 [7] | MIC [16] | MIC50 [16]
0.06 µg/mL: MIC50 [2] | MIC90 [2] | MIC90 [3] | MIC50 [5] | MIC90 [7] | MIC90 [16] | MIC50 [28]
0.12 µg/mL: MIC90 [15]
2 µg/mL: MIC50 [1]
1 µg/mL: MIC90 [5]

Source: ChEMBL document CHEMBL1275492, “In vitro activity of ceftobiprole against pathogens from two phase 3 clinical trials of complicated skin and skin structure infections” (2008)
